Values quoted from earlier work, collected in patent EP2361081B1, “MULTI PORTION INTRA-ORAL DOSAGE FORM AND USE THEREOF” (McNeil AB, priority 2008, dated 2010).
Peptide text beside a SMILES is read from it.

Conditions: not given

Row | SMILES | Solubility in water, g/kg
1 | NCCCC[C@H](N)C(=O)O [Lysine] | Very soluble ^a)b)

Same assay, conditions: in water; footnote b) = low or uncertain value; taken from Handbook of Chemistry and Physics, 85th edition

Row | SMILES | Solubility in water [g/kg] | Solubility in water, g/kg
2 | CSCC[C@H](N)C(=O)O [Methionine] | 56 | –
3 | NC(=O)CC[C@H](N)C(=O)O [Glutamine] | 42 | –
4 | CC[C@H](C)[C@H](N)C(=O)O [Isoleucine] | – | 34,2 g/kg
5 | CC(C)[C@H](N)C(=O)O [Valine] | – | 88,5 g/kg
6 | CC(C)C[C@H](N)C(=O)O [Leucine] | – | 22,0 g/kg
7 | N[C@@H](Cc1ccccc1)C(=O)O [Phenylalanine] | – | 27,9 g/kg
8 | N[C@@H](CS(=O)(=O)O)C(=O)O [Cysteic acid] | – | Very soluble
9 | N[C@@H](Cc1c[nH]cn1)C(=O)O [Histidine] | – | 43,5 g/kg

Conditions: stated in the context of absorption from the oral cavity

Row | SMILES | pKa of nicotine
10 | CN1CCCC1c1cccnc1 (stereo not drawn) [nicotine, 3-(1-methyl-2-pyrrolidinyl)-pyridine] | about 7.8

Conditions: pKa value lying in interval 8 - 9,6; taken from Handbook of Chemistry and Physics, 85th edition

Row | SMILES | pKa value (in interval 8 - 9,6)
11 | CSCC[C@H](N)C(=O)O [Methionine] | 9,08
12 | NC(=O)CC[C@H](N)C(=O)O [Glutamine] | 9,00
13 | CC[C@H](C)[C@H](N)C(=O)O [Isoleucine] | 9,60
14 | NCC(=O)NCC(=O)O [N-Glycylglycine] (H-Gly-Gly-OH) | 8,10
15 | NC(=O)C[C@H](N)C(=O)O [Aspargine] | 8,73
16 | NCC(=O)O [Glycine] | 9,58
17 | CC(C)[C@H](N)C(=O)O [Valine] | 9,52
18 | C[C@@H](O)[C@H](N)C(=O)O [Threonine] | 8,96
19 | N[C@@H](Cc1ccccc1)C(=O)O [Phenylalanine] | 9,09
20 | N[C@@H](CCC(=O)O)C(=O)O [Glutamic acid] | 9,58
21 | N[C@@H](CS(=O)(=O)O)C(=O)O [Cysteic acid] | 8,70
22 | N[C@@H](CO)C(=O)O [Serine] | 9,05
23 | NCCCC[C@H](N)C(=O)O [Lysine] | 9,16
24 | N[C@@H](Cc1c[nH]cn1)C(=O)O [Histidine] | 9,09
